Patent US20060293307A1, “Oxazolidinone derivatives as antimicrobials” (priority 2002, published 2006)
Converted amounts (≈) assume the structure as drawn. Read-outs that look alike come from different tables or passages of the source.

Experiments:
M. tuberculosis PC [1] = assay: MIC against M. tuberculosis strains, agar dilution; format: cell-based, Mycobacterium tuberculosis; conditions: S. No. 19 Mt-, Middle Brook 7H10 + OADC, 37° C., 14-21 days
M. tuberculosis PC [2] = assay: MIC against M. tuberculosis strains, agar dilution; format: cell-based, Mycobacterium tuberculosis; conditions: S. No. 17 Mt-, Middle Brook 7H10 + OADC, 37° C., 14-21 days
[3] = system: M. avium intracellulare 19/97; assay: MIC against MAC strains, agar dilution; format: cell-based; conditions: S. No. 17 Mai-10, M. avium intracellulare 19/97, Middle Brook 7H10 + OADC, 37° C., 14-21 days
M. tuberculosis V-591 = assay: MIC against M. tuberculosis strains, agar dilution; format: cell-based, Mycobacterium tuberculosis; conditions: Middle Brook 7H10 + OADC, 37° C., 14-21 days
M. avium ATCC 49601 = assay: MIC against MAC strains, agar dilution; format: cell-based, Mycobacterium avium; conditions: S. No. 01 Ma-1, M. avium ATCC 49601, Middle Brook 7H10 + OADC, 37° C., 14-21 days
S. pneumoniae 217 = assay: MIC, agar incorporation method; format: cell-based, Streptococcus pneumoniae; conditions: Streptococcus pneumoniae, 217
S. pneumoniae 1251 = assay: MIC, agar incorporation method; format: cell-based, Streptococcus pneumoniae; conditions: Streptococcus pneumoniae, 1251
S. pneumoniae AB 14 = assay: MIC, agar incorporation method; format: cell-based, Streptococcus pneumoniae; conditions: Streptococcus pneumoniae, AB14
[4] = system: S. epidermidis ATCC 12228; assay: MIC, agar incorporation method; format: cell-based, Staphylococcus epidermidis; conditions: Staphylococcus epidermidis, ATCC12228
S. aureus (MRSA) 21299 = assay: MIC, agar incorporation method; format: cell-based, Staphylococcus aureus; conditions: Staphylococcus aureus
[5] = system: S. aureus (MRSA 33) Cipro R; assay: MIC, agar incorporation method; format: cell-based, Staphylococcus aureus; conditions: Staphylococcus aureus
S. pneumoniae AB 21 = assay: MIC, agar incorporation method; format: cell-based, Streptococcus pneumoniae; conditions: Streptococcus pneumoniae, AB21
S. pneumoniae AB 10 = assay: MIC, agar incorporation method; format: cell-based, Streptococcus pneumoniae; conditions: Streptococcus pneumoniae, AB10
K. oxytoca 49131 = assay: MIC, agar incorporation method; format: cell-based; conditions: Klebsiella oxytoca
Moraxella M1 = assay: MIC, agar incorporation method; format: cell-based
S. pneumoniae AB4 = assay: MIC, agar incorporation method; format: cell-based, Streptococcus pneumoniae; conditions: Streptococcus pneumoniae
E. durans 581 = assay: MIC, agar incorporation method; format: cell-based; conditions: Enterococcus durans
S. pneumoniae AB 23 = assay: MIC, agar incorporation method; format: cell-based, Streptococcus pneumoniae; conditions: Streptococcus pneumoniae, AB23
S. aureus (MRSA) 15187 = assay: MIC, agar incorporation method; format: cell-based, Staphylococcus aureus; conditions: Staphylococcus aureus
Moraxella cata. M2 = assay: MIC, agar incorporation method; format: cell-based
E. faecium 6A (VRE) = assay: MIC, agar incorporation method; format: cell-based, Enterococcus faecium; conditions: Enterococcus faecium
S. aureus ATCC 25923 = assay: MIC, agar incorporation method; format: cell-based, Staphylococcus aureus; conditions: Staphylococcus aureus, ATCC25923
[6] = system: S. epidermidis (MRSE) 23760; assay: MIC, agar incorporation method; format: cell-based, Staphylococcus epidermidis; conditions: Staphylococcus epidermidis, MRSE
S. pneumoniae AB 31 = assay: MIC, agar incorporation method; format: cell-based, Streptococcus pneumoniae; conditions: Streptococcus pneumoniae, AB31
Acinetobacter 9956 = assay: MIC, agar incorporation method; format: cell-based
S. pneumoniae AB 16 = assay: MIC, agar incorporation method; format: cell-based, Streptococcus pneumoniae; conditions: Streptococcus pneumoniae, AB16
S. pyogenes 20361 = assay: MIC, agar incorporation method; format: cell-based, Streptococcus pyogenes; conditions: Streptococcus pyogenes
H. influenzae R = assay: MIC against Haemophilus strains; format: cell-based; conditions: Haemophilus influenzae; s. No. 4, H. influenzae R; read-out: MIC
H. influenzae P318 = assay: MIC against Haemophilus strains; format: cell-based; conditions: Haemophilus influenzae; s. No. 10, H. influenzae P318; read-out: MIC
S. epidermidis 823 = assay: MIC, agar incorporation method; format: cell-based, Staphylococcus epidermidis; conditions: Staphylococcus epidermidis, 823
S. pneumoniae ATCC 6303 = assay: MIC, agar incorporation method; format: cell-based, Streptococcus pneumoniae; conditions: Streptococcus pneumoniae, ATCC6303
E. coli 25922 = assay: MIC, agar incorporation method; format: cell-based; conditions: Escherichia coli
[7] = Mycobacterium tuberculosis, read-out: MIC
[8] = Mycobacterium tuberculosis, V591, S. No. 13 Mt-, read-out: MIC
[9] = Mycobacterium avium, ATCC49601, read-out: MIC

`NNC(=O)c1ccncc1` [INH] gave an MIC (M. tuberculosis PC [1]) of 0.25 µg/mL, an MIC (M. tuberculosis PC [2]) of 32 µg/mL and an MIC [3] of 32 µg/mL. For the same compound, the MIC (M. tuberculosis V-591; S. No. 13 Mt-) was >32 µg/mL and the MIC (M. avium ATCC 49601) was >32 µg/mL.

Compound `CC(=O)NC[C@H]1CN(c2ccc(N3CCN(c4ccc([N+](=O)[O-])s4)CC3)c(F)c2)C(=O)O1` [Compound No. 1, (S)—N-[[3-[3-Fluoro-4-[4-(5-nitro-2-thienyl)-1-piperazinyl]phenyl]-2-oxo-5-oxazolidinyl]methyl]acetamide] has an MIC (S. pneumoniae 217) of 0.125 µg/mL (≈ 0.27 µM), an MIC (S. pneumoniae 1251) of 0.125 µg/mL (≈ 0.27 µM) and an MIC (S. pneumoniae AB 14) of 0.125 µg/mL (≈ 0.27 µM). The MIC [4] was 0.125 µg/mL (≈ 0.27 µM), the MIC (S. aureus (MRSA) 21299; S. No. 5, S. aureus (MRSA) 21299, read-out: MIC) was 0.25 µg/mL (≈ 0.539 µM) and the MIC ([5]; S. No. 7, S. aureus (MRSA 33) Cipro R, read-out: MIC) was 0.25 µg/mL (≈ 0.539 µM). The MIC (S. pneumoniae AB 21) was 0.125 µg/mL (≈ 0.27 µM), the MIC (M. tuberculosis PC [1]; [7]) was ≤ 0.125 µg/mL and the MIC (S. pneumoniae AB 10; S. No. 35, S. pneumoniae AB 10, read-out: MIC) was 0.06 µg/mL (≈ 0.129 µM). For the same compound, the MIC (K. oxytoca 49131; S. No. 27, K. oxytoca 49131, read-out: MIC) was > 16 µg/mL, the MIC (Moraxella M1; S. No. 58, Moraxella M1, read-out: MIC) was 1 µg/mL (≈ 2.16 µM) and the MIC (S. pneumoniae AB4; S. No. 33, S. pneumoniae AB4, read-out: MIC) was 0.06 µg/mL (≈ 0.129 µM). It also gave an MIC (E. durans 581; S. No. 24, E. durans 581, read-out: MIC) of 0.25 µg/mL (≈ 0.539 µM), an MIC (S. pneumoniae AB 23) of 0.125 µg/mL (≈ 0.27 µM) and an MIC (M. tuberculosis PC [2]; [7]) of 0.25 µg/mL. For the same compound, the MIC (S. aureus (MRSA) 15187; S. No. 4, S. aureus (MRSA) 15187, read-out: MIC) was 0.25 µg/mL (≈ 0.539 µM), the MIC (Moraxella cata. M2; S. No. 59, Moraxella cata. M2, read-out: MIC) was 0.25 µg/mL (≈ 0.539 µM) and the MIC ([3]; Mycobacterium avium, read-out: MIC) was 0.25 µg/mL. The MIC (E. faecium 6A (VRE); S. No. 21, E. faecium 6A (VRE), read-out: MIC) was 0.25 µg/mL (≈ 0.539 µM), the MIC (S. aureus ATCC 25923; S. No. 1, organism cell empty, read-out: MIC) was 0.25 µg/mL (≈ 0.539 µM) and the MIC [6] was 0.125 µg/mL (≈ 0.27 µM). For the same compound, the MIC (M. tuberculosis V-591; [8]) was 0.5 µg/mL, the MIC (S. pneumoniae AB 31) was 0.125 µg/mL (≈ 0.27 µM) and the MIC (Acinetobacter 9956; S. No. 30, Acinetobacter 9956, read-out: MIC) was > 16 µg/mL. For the same compound, the MIC (S. pneumoniae AB 16) was 0.125 µg/mL (≈ 0.27 µM), the MIC (S. pyogenes 20361; S. No. 53, S. pyogenes 20361, read-out: MIC) was 0.06 µg/mL (≈ 0.129 µM) and the MIC (H. influenzae R) was 8 µg/mL (≈ 17.3 µM). The MIC (H. influenzae P318) was 16 µg/mL (≈ 34.5 µM), the MIC (S. epidermidis 823) was 0.125 µg/mL (≈ 0.27 µM) and the MIC (S. pneumoniae ATCC 6303) was 0.125 µg/mL (≈ 0.27 µM). For the same compound, the MIC (M. avium ATCC 49601; [9]) was < 0.125 µg/mL and the MIC (E. coli 25922; S. No. 25, E. coli 25922, read-out: MIC) was > 16 µg/mL.

`CC[C@H]1OC(=O)[C@H](C)[C@@H](O[C@H]2C[C@@](C)(OC)[C@@H](O)[C@H](C)O2)[C@H](C)[C@@H](O[C@@H]2O[C@H](C)C[C@H](N(C)C)[C@H]2O)[C@](C)(OC)C[C@@H](C)C(=O)[C@H](C)[C@@H](O)[C@]1(C)O` [CLA] showed an MIC (M. tuberculosis PC [1]) of 8.0 µg/mL, an MIC (M. tuberculosis PC [2]) of 4.0 µg/mL and an MIC [3] of 32 µg/mL. The MIC (M. tuberculosis V-591; S. No. 13 Mt-) was 32 µg/mL and the MIC (M. avium ATCC 49601) was <0.25 µg/mL.

With `CCc1cc(C(N)=S)ccn1` [ETH] the MIC (M. tuberculosis PC [1]) was 1.0 µg/mL, the MIC (M. tuberculosis PC [2]) was 32 µg/mL and the MIC [3] was 16 µg/mL. For the same compound, the MIC (M. tuberculosis V-591; S. No. 13 Mt-) was >32 µg/mL and the MIC (M. avium ATCC 49601) was 4.0 µg/mL.

`C[C@@H]1CN(c2c(F)c(N)c3c(=O)c(C(=O)O)cn(C4CC4)c3c2F)C[C@H](C)N1` [SPAR] was tested, and the MIC (M. tuberculosis PC [1]) was “≦0.125 μg/ml”, the MIC (M. tuberculosis PC [2]) was 8.0 µg/mL and the MIC [3] was 1.0 µg/mL. It also gave an MIC (M. tuberculosis V-591; S. No. 13 Mt-) of 2.0 µg/mL and an MIC (M. avium ATCC 49601) of 0.5 µg/mL.

`CO[C@H]1/C=C/O[C@@]2(C)Oc3c(C)c(O)c4c(O)c(c(/C=N/N5CCN(C)CC5)c(O)c4c3C2=O)NC(=O)/C(C)=C\C=C\[C@H](C)[C@H](O)[C@@H](C)[C@@H](O)[C@@H](C)[C@H](OC(C)=O)[C@@H]1C` [RIF] was tested, and the MIC (M. tuberculosis PC [1]) was 0.06 µg/mL, the MIC (M. tuberculosis PC [2]) was 2.0 µg/mL and the MIC [3] was >32 µg/mL. For the same compound, the MIC (M. tuberculosis V-591; S. No. 13 Mt-) was >32 µg/mL and the MIC (M. avium ATCC 49601) was <0.03 µg/mL.

With `CC(=O)NC[C@H]1CN(c2ccc(N3CCOCC3)c(F)c2)C(=O)O1` [Linezolid, reference compound] the MIC (S. pneumoniae 217) was 1 µg/mL (≈ 2.96 µM), the MIC (S. pneumoniae 1251) was 1 µg/mL (≈ 2.96 µM) and the MIC (S. pneumoniae AB 14) was 1 µg/mL (≈ 2.96 µM). For the same compound, the MIC [4] was < 0.5 µg/mL, the MIC (S. aureus (MRSA) 21299; MRSA) was 1 µg/mL (≈ 2.96 µM) and the MIC ([5]; MRSA) was 1 µg/mL (≈ 2.96 µM). The MIC (S. pneumoniae AB 21) was 1 µg/mL (≈ 2.96 µM), the MIC (M. tuberculosis PC [1]; [7]) was 0.5 µg/mL and the MIC (S. pneumoniae AB 10) was 0.25 µg/mL (≈ 0.741 µM). The MIC (K. oxytoca 49131; 49131) was > 16 µg/mL, the MIC (Moraxella M1; Moraxella, M1) was 4 µg/mL (≈ 11.9 µM) and the MIC (S. pneumoniae AB4; AB4) was 0.25 µg/mL (≈ 0.741 µM). The MIC (E. durans 581; 581) was 1 µg/mL (≈ 2.96 µM), the MIC (S. pneumoniae AB 23) was 1 µg/mL (≈ 2.96 µM) and the MIC (M. tuberculosis PC [2]; [7]) was 32 µg/mL. The MIC (S. aureus (MRSA) 15187; MRSA) was 2 µg/mL (≈ 5.93 µM), the MIC (Moraxella cata. M2; Moraxella, CATA.M2) was 4 µg/mL (≈ 11.9 µM) and the MIC (E. faecium 6A (VRE); VRE) was 2 µg/mL (≈ 5.93 µM). The MIC (S. aureus ATCC 25923) was 2 µg/mL (≈ 5.93 µM), the MIC [6] was 1 µg/mL (≈ 2.96 µM) and the MIC (M. tuberculosis V-591; [8]) was > 32 µg/mL. For the same compound, the MIC (S. pneumoniae AB 31) was 1 µg/mL (≈ 2.96 µM), the MIC (Acinetobacter 9956; Acinetobacter, 9956) was > 16 µg/mL and the MIC (S. pneumoniae AB 16) was 1 µg/mL (≈ 2.96 µM). The MIC (S. pyogenes 20361; 20361) was 1 µg/mL (≈ 2.96 µM), the MIC (H. influenzae R) was 16 µg/mL (≈ 47.4 µM) and the MIC (H. influenzae P318) was 16 µg/mL (≈ 47.4 µM). The MIC (S. epidermidis 823) was < 0.5 µg/mL, the MIC (S. pneumoniae ATCC 6303) was 1 µg/mL (≈ 2.96 µM) and the MIC (M. avium ATCC 49601; [9]) was 0.5 µg/mL. The MIC (E. coli 25922; 25922) was > 16 µg/mL.
